Experimental data published in patent US20250205176A1, “SOLID COMPOSITION CONTAINING FORM II-TYPE CRYSTAL OF REDUCED COENZYME Q10” (KANEKA CORPORATION, priority 2022, published 2025).

Test: Reference Example: half-life period and stabilization degree from QH residual rate after 14 days storage
Type: physicochemical
Details: for Half-life Period: number of days required for the QH residual rate to reach 50%, from storage at 25° C. and 60% RH for 14 days
Method: The reduced coenzyme Q10 Form I crystal (Form I-crystal), the particulate solid composition produced using the reduced coenzyme Q10 Form I crystal in the same manner as in Comparative Example 1 (Form I-stabilized composition), the reduced coenzyme Q10 Form II crystal (Form II-crystal), and the particulate solid composition produced using the reduced coenzyme Q10 Form II crystal in the same manner as in Example 1 (A-1) (Form II-stabilized composition) were stored at 25° C. and 60% RH for 14 days. From the QH residual rate after storage, the half-life period, which is the number of days required for the QH residual rate to reach 50%, and the stabilization degree, which is the ratio of the half-life period of the stabilized composition to the half-life period of each crystal, were determined and shown in Table 17.

## COc1c(O)c(C)c(C/C=C(\C)CC/C=C(\C)CC/C=C(\C)CC/C=C(\C)CC/C=C(\C)CC/C=C(\C)CC/C=C(\C)CC/C=C(\C)CC/C=C(\C)CCC=C(C)C)c(O)c1OC [Form II - crystal, reduced coenzyme Q10]
25° C. and 60% RH
  stability relative to the Form I crystal: 14 times
  Half-life Period: 189 days

## COc1c(O)c(C)c(C/C=C(\C)CC/C=C(\C)CC/C=C(\C)CC/C=C(\C)CC/C=C(\C)CC/C=C(\C)CC/C=C(\C)CC/C=C(\C)CC/C=C(\C)CCC=C(C)C)c(O)c1OC [Form I - crystal, reduced coenzyme Q10]
  Half-life Period: 14 days
